Measured values: US20240336567A1, “PESTICIDAL AND HERBICIDAL COMPOUNDS AND METHODS OF USE THEREOF” (AG Plenus Ltd, priority 2021, published 2024)
Like-named read-outs stand apart in the source and are kept apart here.

What was measured:
[1] = test system: Arabidopsis thaliana; assay: HTPS - Dicot - Pre-emergence; format: in vivo; conditions: N/A: not active; for Emax: read-out: HTPS - Dicot - Pre Max effect
Procedure, shortened: (§1)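 Pre-emergence: compound in 50% acetone applied at 30 μL/well onto sown sand (Arabidopsis or Eragrostis teff), max 1.5 Kg/Ha, 2.5-fold dilutions. Green area imaged by RGB, normalized to give % inhibition; ED50, ED75, ED90 from log-dose curves, t-test versus controls.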

[2] = test system: SETVI; assay: In-planta LTP post-emergence, visual phenotype; format: in vivo, Setaria viridis; conditions: monocot
Experimental: (§2) A basic panel of eight weed species (Table 3) sowed in 4×4×7 cm plastic pots containing a garden mix (klasmann). Each specie was sowed in a separate pot. In each pot, 10-15 seeds were sowed according to the specie viability. Timing of application determined at a 1-2 true leaf stage. The plants grew for 30 days in a controlled greenhouse (26±2° C. day, 20±2° C. night). Hood irrigation (tap water+Shefer 5:3:8 8 mM) was given at a 50% water content by weight. Two days before application, the tested plants thinned down to three plants per pot. Compounds were soluble in water (DDW), and commercial herbicide control was soluble in formulation B (Table 4). […] Plants were evaluated at 3 time points (4, 8, 12 days after application (DAA)). At each time point, visual phenotyping was recorded using a scale of 0-6 (0: no visible effect, 6: maximum effect). […]
(§3) Post-emergence advanced dose response experiment included 4 species: SETVI, ECHCO, AMAPA, ABUTH (Tables 3, 5). […] Plants were evaluated at 4 time points (6, 12, 18 and 26 DAA). At each time point, visual phenotyping was recorded using a scale of 0-6 (0: no visible effect, 6: maximum effect). […]
(§4) Post-emergence advanced wide panel experiment included 24 weed species (Table 5). […] Visual phenotyping was recorded at 4, 11, 17 and 20 DAA using a scale of 0-6 (0: no visible effect, 6: maximum effect). […]

[3] = test system: SETVI; assay: In-planta LTP pre-emergence, visual phenotype; format: in vivo, Setaria viridis; conditions: Setaria viridis, 432 h, monocot
Experimental: (§5) A basic panel of 8 weed species (Table 3) were sowed in 4×4×7 cm plastic pots containing inert sand (Sweet sand), intensively washed using osmosis water. Each specie was sowed in a separate pot. In each pot 10-15 seeds were sowed according to the specie viability. Sowing was performed one day before application. The plants were grown for 21 days in a controlled greenhouse (26±2° C. day 20±2° C. night). Hood irrigation (tap water+Shefer 5:3:8 8 mM) was given at a 50% water content by weight. Compounds were soluble in water (DDW), and commercial herbicide control was soluble in formulation B (Table 4). Application was conducted with an industrial sprayer (TeeJet 6502E nozzle) at a rate of 2 kg/ha and spray volume of […]. Pre-emergence advanced dose response experiment application was conducted at six rates between 1-0.0312 kg/ha and spray volume of […]. Percentage of emergence was evaluated at 15 DAA. Visual phenotyping was recorded using a scale of 0-6 (0: no visible effect, 6: maximum effect) at 18 DAA. All experiments included an untreated control, a solvent control and a positive control (commercial herbicide A.I.). Statistical analysis for visual phenotyping determined by a median value of ≥3.5 and Fisher test (pval≤0.05). Statistical analysis for plant emergence determined by % emergence ≥50 and T test (pval≤0.05), as well as Wilcox test (pval≤0.05).

[4] = test system: ALOMY; assay: In-planta LTP pre-emergence, visual phenotype; format: in vivo, Alopecurus myosuroides; conditions: monocot
Experimental: as §5

[5] = test system: ABUTH; assay: In-planta LTP post-emergence, visual phenotype; format: in vivo, Abutilon theophrasti; conditions: dicot
Experimental: as §2, §3, §4

[6] = test system: POAAN; assay: In-planta LTP post-emergence, visual phenotype; format: in vivo, Poa annua; conditions: monocot
Experimental: as §2, §3, §4

[7] = test system: Eragrostis teff; assay: HTPS - Monocot - Pre-emergence; format: in vivo; conditions: N/A: not active; for Emax: read-out: HTPS - Monocot - Pre Max effect
Procedure, shortened: as §1

[8] = test system: MATCA; assay: In-planta LTP pre-emergence, visual phenotype; format: in vivo, Matricaria chamomilla; conditions: dicot
Experimental: as §5

[9] = test system: ECHCO; assay: In-planta LTP post-emergence, visual phenotype; format: in vivo, Echinochloa colona; conditions: monocot
Experimental: as §2, §3, §4

[10] = read-out: DE Disturbed emergence (% effect)
[11] = read-out: IG Inhibited growth (% effect)

Compound | HTPS - Dicot - Pre ED50 [1] [g/ha] | Emax [1] [%] | IG Inhibited growth (% effect) [2] | pest or weed control at 2000 g/ha [3, 10] [%] | pest or weed control at 2000 g/ha [3, 11] [%] | IG Inhibited growth (% effect) [4] | BL Bleaching (% effect) [5] | IG Inhibited growth (% effect) [6] | BL Bleaching (% effect) [4] | DAB Disturbed apical bud (% effect) [4] | DE Disturbed emergence (% effect) [4] | HTPS - Monocot - Pre ED50 [7] [g/ha] | Emax [7] [%] | IG Inhibited growth (% effect) [8] | IG Inhibited growth (% effect) [9]
C#CCOC(=O)c1cccc(OCC(C)N)c1 (centres unmarked) [Compound 111] | 24 | 100 | IG (60) % | 100 | 100 | IG (40) % | BL (40) % | – | – | – | – | – | – | – | –
C[C@@H](N)COc1cccc(C(=O)O)c1 [Compound 154] | – | – | IG (60) % | 100 | – | IG (80), % | – | IG (60) % | BL (60) % | DAB (60), % | DE (40), % | 150 | 100 | – | –
CCCCOC(=O)c1cccc(OCC(C)N)c1 (centres unmarked) [Compound 112] | 20 | 100 | – | 80 | 100 | – | – | – | – | – | – | – | – | IG (60) % | –
CC(N)COc1cccc(C(=O)O)c1 (centres unmarked) [Compound 106] | 33 | 100 | – | 100 | 100 | – | BL (60) % | – | – | – | – | 380 | 87 | – | IG^1 (60) %
